Laboratory results: publication PMC5904360, “Soluble N-Ethylmaleimide-Sensitive Factor Attachment Protein Receptor-Derived Peptides for Regulation of Mast Cell Degranulation” (Frontiers in Immunology, 2018)

Legend:
[1] = target: T1, SN23-Syn4-Vp8 SNARE complex (Rattus norvegicus, UniProt O70377+Q08850+Q9WUF4); experiment: SNARE-driven membrane fusion (total lipid mixing) assay with proteoliposomes; format: biochemical; details: peptide added after preincubation of T- and V-liposomes at 4°C overnight (partially zippered SNAREs) (Figure 4A)
T1 construct: Syn4 (amino acids 1–298); SNAP-23 (amino acids 1–210); VAMP8 (amino acids 1–100); GST (N, cleaved yes); made in house; host or cells: Escherichia coli Rosetta(DE3)pLysS
T1 sequence (Q08850 1-298): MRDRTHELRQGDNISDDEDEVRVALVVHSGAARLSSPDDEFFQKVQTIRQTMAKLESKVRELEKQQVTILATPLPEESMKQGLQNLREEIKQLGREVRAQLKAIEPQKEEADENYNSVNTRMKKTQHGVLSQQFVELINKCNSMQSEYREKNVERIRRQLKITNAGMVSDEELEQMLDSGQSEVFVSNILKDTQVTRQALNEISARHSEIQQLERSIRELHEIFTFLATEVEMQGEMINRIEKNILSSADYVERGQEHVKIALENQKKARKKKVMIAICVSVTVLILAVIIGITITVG
T1 sequence (O70377 1-210): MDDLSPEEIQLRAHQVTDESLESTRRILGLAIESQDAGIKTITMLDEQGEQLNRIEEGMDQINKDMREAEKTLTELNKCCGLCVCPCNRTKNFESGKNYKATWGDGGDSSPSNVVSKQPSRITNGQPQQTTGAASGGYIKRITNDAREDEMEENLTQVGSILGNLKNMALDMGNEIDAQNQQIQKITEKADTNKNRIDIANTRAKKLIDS
T1 sequence (Q9WUF4 1-100): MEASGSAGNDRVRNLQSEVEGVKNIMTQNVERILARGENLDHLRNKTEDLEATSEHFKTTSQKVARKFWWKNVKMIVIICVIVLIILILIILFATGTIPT

[2] = target: T2, SN23-Syn4-Vp2 SNARE complex (Rattus norvegicus, UniProt O70377+P63045+Q08850); experiment: as above; format: biochemical; details: for inhibition of membrane fusion, peptide added after preincubation: peptide added after preincubation of T- and V-liposomes at 4°C overnight (partially zippered SNAREs) (Figure 4A); for inhibition of membrane fusion, peptide added before preincubation: peptide added before preincubation of T- and V-liposomes at 4°C overnight (Figure 4A)
T2 construct: Syn4 (amino acids 1–298); SNAP-23 (amino acids 1–210); full-length VAMP2 (VpF, amino acids 1–116); GST (N, cleaved yes); made in house; host or cells: Escherichia coli Rosetta(DE3)pLysS
T2 sequence (P63045 whole entry, one chain of several, the tested form may be a part): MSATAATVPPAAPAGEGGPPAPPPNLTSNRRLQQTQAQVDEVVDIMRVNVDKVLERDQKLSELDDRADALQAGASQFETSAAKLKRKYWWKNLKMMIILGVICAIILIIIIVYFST
Text: (§1) Total RNA was obtained from RBL-2H3 cells using TRIzol® Reagent (#15596026, Invitrogen, Carlsbad, CA, USA) and served as a template for cDNA synthesis with M-MLV reverse transcriptase (M1705, Promega, Madison, WI, USA) according to the manufacturer’s protocol. The cDNAs amplified for rat Syn4, SNAP-23, VAMP2, VAMP4, VAMP7, and VAMP8 using each primer pair ([4]), were cloned into the pGEX-4T 1 vector. The mast cell SNARE proteins [Syn4 (amino acids 1–298), SNAP-23 (amino acids 1–210), full-length VAMP2 (VpF, amino acids 1–116), VAMP4 (amino acids 1–141), and VAMP8 (amino acids 1–100)] were expressed in Escherichia coli Rosetta(DE3)pLysS (#70956, Novagen, Darmstadt, Germany) and purified as glutathione-S-transferase-tagged fusion proteins as reported previously ([8]).
(§2) To prepare the unilamellar liposomes, a 50-mM lipid mixture of palmitoyl-2-oleoylphosphatidylcholine (POPC) (#850457, Avanti Polar Lipids, Alabaster, AL, USA):1,2-dioleoyl-phosphatidylserine (DOPS) (#840035, Avanti Polar Lipids) at 65:35 mol% was dried in a glass tube under a gentle stream of nitrogen gas and then exposed to a vacuum overnight. The resultant lipid film was resuspended in dialysis buffer (25 mM HEPES and 100 mM KCl, pH 7.4) by vortexing, followed by an extrusion step with polycarbonate membrane filters having a pore size of 100 nm (#610005, Avanti Polar Lipids). To prepare proteoliposomes, binary T-SNAREs, which were pre-formed by mixing Syn4 and SNAP-23 at room temperature for 60 min, were incubated with 50 mM unilamellar liposomes for 15 min at the same temperature, resulting in a 50:1 lipid/protein molar ratio ([9]).
(§3) For the preparation of V-SNARE proteoliposomes, a 10-mM premixed lipid solution [POPC:DOPS:N-(7-nitro-2-1,3-benzoxadiazol-4-yl (NBD))-phosphatidylserine (#810198, Avanti Polar Lipids):[…] (#810150, Avanti Polar Lipids) = 62:35:1.5:1.5 (molar ratio)] was used for the preparation of fluorescent liposomes in the same manner as above. The prepared liposomes were then mixed with VAMP2 for 15 min at room temperature. The liposome/protein mixture was diluted twice to bring the concentration of n-octyl glucoside (O8001, Sigma-Aldrich) below the critical micelle concentration. After overnight dialysis against 1L dialysis buffer at 4°C to remove the detergent, SM-2 bio-beads (#1523920, Bio-Rad Laboratories, Hercules, CA, USA) were added to the sample to remove any remaining n-octyl glucoside. The solution was then centrifuged at 10,000 × g to remove the protein/lipid aggregates, and the final lipid concentrations of both the T- and V-liposomes were adjusted to 1 mM with a lipid-to-protein ratio of 50:1.
A total lipid mixing assay using the T- and V-liposomes was performed as described previously with minor modifications ([8]). […] The fusion was monitored using the dequenching of NBD fluorescence signal (excitation 465 nm/emission 530 nm). After at least 80 min of fusion, the maximum NBD signal was obtained by adding 0.1% Triton X-100™. All the lipid-mixing experiments were performed at 37°C.

RBL-2H3 mast cells [3] = experiment: Degranulation assay, β-hexosaminidase release; format: cell-based, rat; details: for inhibition of mast cell degranulation with versus without A23187 pretreatment: PTD-conjugated peptides, read-outs β-hexosaminidase and histamine (Figure 4B); for reduction of β-hexosaminidase release: 10 µM PTD-fused peptide without SLO (LY294002 as positive control), DNP-BSA stimulation, no A23187 pretreatment, three independent experiments (Figure 2A gray bars, 2C)
[4] = target: T1, SN23-Syn4-Vp8 SNARE complex; experiment: SNARE-driven membrane fusion (total lipid mixing) assay with proteoliposomes; format: biochemical; details: for inhibition of membrane fusion, peptide added before preincubation: peptide added before preincubation of T- and V-liposomes at 4°C overnight (Figure 4A)
Text: as §1, §2, §3
A total lipid mixing assay using the T- and V-liposomes was performed as described previously with minor modifications ([8]). Briefly, peptide inhibitors were applied to the T-vesicles at the indicated concentrations and then the T-vesicles were mixed with the V-vesicles in a 384-well plate for the initiation of fusion, with a T- to V-vesicle volume ratio of 9:1. The fusion was monitored using the dequenching of NBD fluorescence signal (excitation 465 nm/emission 530 nm). After at least 80 min of fusion, the maximum NBD signal was obtained by adding 0.1% Triton X-100™. All the lipid-mixing experiments were performed at 37°C.

RBL-2H3 mast cells [5] = experiment: Degranulation assay, histamine release (enzyme immunoassay); format: cell-based, rat; details: for inhibition of histamine release: PTD-conjugated peptide without SLO (LY294002 as positive control), DNP-IgE sensitized, DNP-BSA stimulation, no A23187 pretreatment, three independent experiments (Figure 2C)
NC/Nga mice = experiment: DNCB-induced atopic dermatitis-like skin lesions; format: in vivo, mouse
Text: Seven-week-old NC/Nga mice were purchased from the Shizuoka Laboratory Animal Center (Shizuoka, Japan) and allowed to adapt to the environment for a week prior to use. The procedures for the induction of atopic dermatitis-like symptoms in mice using 1-chloro-2,4-dinitro-benzene (DNCB) have been well described previously ([27]). Briefly, the dorsal hair of the mice was shaved 2 days before DNCB administration. For the induction of atopic dermatitis, 1% DNCB was applied to the dorsal skin of the mice twice weekly for 7 days and then 0.2% DNCB was applied thrice weekly for 21 days. The mice were divided into the following […] treatment groups (n = 10 per group): 0.3 and 3% Vp2N/day, 0.3 and 3% Vp8N/day, 0.1% dexamethasone/day, and vehicle only, dorsally administered from 9 to 13 weeks of age. As a negative control for atopic dermatitis, NC/Nga mice that were not treated with DNCB were maintained under pathogen-free conditions. Laboratory animal breeding management was based on the “Guide for the Care and Use of Laboratory Animals,” and all experiments were approved by the Institutional Animal Care and Use Committees of Gyeonggi Institute of Science & Technology.

SN23-Syn4-Vp2 complex = target: T3, SN23-Syn4-Vp2 complex (Rattus norvegicus, UniProt O70377+P63045+Q08850); experiment: Co-immunoprecipitation of SNARE complexes in activated RBL-2H3 cells, anti-SNAP-23 blot; format: cell-based; details: peptides added to the medium after A23187 pretreatment; IP of Vp2, blot anti-SNAP-23 (Figure 4C)
T3 construct: Lysates of RBL-2H3 cells; endogenous in cells; host or cells: RBL-2H3 (ATCC CRL-2256)
T3 sequence (P63045 whole entry, one chain of several): as the sequence (P63045 whole entry, one chain of several, the tested form may be a part) above
Description: Lysates of RBL-2H3 cells (0.5–1 × 10^6 cells), which were obtained by the addition of 1 mL lysis buffer (50 mM Tris–HCl, 150 mM NaCl, 1% Triton X-100™, 1 mM EDTA, pH 7.5) supplemented with a protease inhibitor cocktail (Calbiochem®, Merck Millipore, Billerica, MA, USA), were centrifuged at 13,000 g at 4°C to remove cell debris and precleared with 100 µL protein G Sepharose® (GE Healthcare) for 2 h at 4°C. The precleared lysates were incubated with antibodies against SNARE proteins (Syn4, SNAP-23, VAMP2, and VAMP8) for 2 h at 4°C for binding, and then the antibody–antigen complexes were precipitated by incubation with a protein G slurry overnight with constant shaking. After an extensive washing step with lysis buffer, an immunoblotting analysis was performed for the precipitates. The immunoprecipitated proteins and cell lysates were electrophoresed on 12% sodium dodecyl sulfate-polyacrylamide gel electrophoresis gels and then transferred to nitrocellulose blotting membranes (GE Healthcare). After blocking the membranes in TBST (10 mM Tris–HCl, 150 mM NaCl, and 0.05% Tween® 20, pH 8) containing 0.5% BSA and 5% skim milk for 1 h at room temperature, primary anti-SNAP-23 antibody (1:1,000 dilution) in TBST supplemented with 1% BSA and 0.01% sodium azide was added and incubated at 4°C overnight. The membranes were washed with TBST, treated with a horseradish peroxidase-conjugated secondary anti-mouse IgG antibody (A4416, Sigma-Aldrich), and visualized using enhanced chemiluminescence solution for the development of a luminescent signal.

[6] = inhibitor applied to T-vesicles, T:V 9:1, 37°C, NBD dequenching, Vp2S/Vp8S at 10 µM, three independent experiments (Figure 3B-D)
[7] = cells pretreated with A23187, sensitized with DNP-IgE, then PTD-conjugated peptide (Figure 4B)

## DQINKDMREAEKTLTEL [SN23C, 17-mer peptide, C-terminal region of SNAP-23 SNARE motif SN23]
[1]
  inhibition of membrane fusion, peptide added after preincubation: did not inhibit membrane fusion regardless of preincubation
[2]
  inhibition of membrane fusion, peptide added after preincubation: did not inhibit membrane fusion regardless of preincubation
  inhibition of membrane fusion, peptide added before preincubation: did not inhibit membrane fusion regardless of preincubation
RBL-2H3 mast cells [3]
  inhibition of mast cell degranulation with versus without A23187 pretreatment: did not inhibit degranulation regardless of whether the pretreatment with A23187 was performed
[4]
  inhibition of membrane fusion, peptide added before preincubation: did not inhibit membrane fusion regardless of preincubation

## EHFKTTSQKVARKFWWK [Vp8C, 17-mer peptide, C-terminal region of VAMP8 SNARE motif]
[1]
  inhibition of membrane fusion, peptide added after preincubation: did not inhibit membrane fusion regardless of preincubation
[2]
  inhibition of membrane fusion, peptide added after preincubation: did not inhibit membrane fusion regardless of preincubation
  inhibition of membrane fusion, peptide added before preincubation: did not inhibit membrane fusion regardless of preincubation
RBL-2H3 mast cells [3]
  inhibition of mast cell degranulation with versus without A23187 pretreatment: did not inhibit degranulation regardless of whether the pretreatment with A23187 was performed
[4]
  inhibition of membrane fusion, peptide added before preincubation: did not inhibit membrane fusion regardless of preincubation

## KIKHVQNQVDEVIDVMQ [Vp4N, 17-mer peptide, N-terminal region of VAMP4 SNARE motif]
RBL-2H3 mast cells [3]
  reduction of β-hexosaminidase release: 0–20%
RBL-2H3 mast cells [5]
  inhibition of histamine release: 0–20%

## QSLDRVTETQAQVDELK [Vp7N, 17-mer peptide, N-terminal region of VAMP7 SNARE motif]
RBL-2H3 mast cells [3]
  reduction of β-hexosaminidase release: 0–20%
RBL-2H3 mast cells [5]
  inhibition of histamine release: 0–20%

## RGENLDHLRNKTEDLEA [Vp8M, 17-mer peptide, middle region of VAMP8 SNARE motif]
[4]; [6]
  inhibition of membrane fusion (lipid mixing): specific to the SN23-Syn4-Vp8 complex

## RRLQQTQAQVDEVVDIM [Vp2N, 17-mer peptide, N-terminal region of VAMP2 SNARE motif]
NC/Nga mice; 0.3 and 3% peptide/day dorsally for 4 weeks, n = 10 per group, versus DNCB/vehicle-treated group (Figure 5C)
  epidermal thickness: significantly reduced
NC/Nga mice; 0.3 and 3% peptide/day dorsally, 9 to 13 weeks of age, n = 10 per group, compared with 0.1% dexamethasone/day group (Figure 5B)
  atopic dermatitis features (acanthosis, hypergranulosis, hyperkeratosis) in hematoxylin and eosin-stained sections: clearly alleviated to a similar extent
NC/Nga mice; 0.3 and 3% peptide/day or 0.1% dexamethasone/day for 4 weeks, n = 10 per group (Figure 5D)
  ear thickness: reduced
[2]; [6]
  inhibition of membrane fusion (lipid mixing): efficiently inhibited
[2]
  inhibition of membrane fusion, peptide added after preincubation: inhibitory activities significantly diminished
  inhibition of membrane fusion, peptide added before preincubation: inhibited the membrane fusion driven only by their cognate SNARE complexes
RBL-2H3 mast cells [3]
  reduction of β-hexosaminidase release: did not inhibit
  inhibition of mast cell degranulation with versus without A23187 pretreatment: inhibited mast cell degranulation more efficiently than without pretreatment
RBL-2H3 mast cells [3]; [7]
  inhibition of β-hexosaminidase release after A23187 pretreatment: did not inhibit
RBL-2H3 mast cells [5]
  inhibition of histamine release: 43%
RBL-2H3 mast cells [5]; [7]
  inhibition of histamine release after A23187 pretreatment: dramatically reduced
SN23-Syn4-Vp2 complex
  SNARE complex formation in cells (amount of SN23-Syn4-Vp2 complex): reduced
